From a compilation of properties of binary mixtures (doi:10.1021/ie501956x)

Assay: xn = mol fraction of the nth substance listed
Conditions: 101 kPa

CCO + CC(=O)[O-].CC[n+]1ccn(C)c1
x1 = 1
Conditions	viscosity [mPa·s]
278.15 K	1.582
288.15 K	1.31
298.15 K	1.081
308.15 K	0.899
328.15 K	0.638

CC(=O)[O-].CC[n+]1ccn(C)c1 + CCO
viscosity [mPa·s]
Conditions	x2 = 0	x2 = 0.1	x2 = 0.201	x2 = 0.2999	x2 = 0.4002	x2 = 0.5001	x2 = 0.6	x2 = 0.7	x2 = 0.8	x2 = 0.9
278.15 K	690	462	–	149.8	86.7	44.6	23.61	12.96	6.55	–
288.15 K	–	–	130.8	81.5	49.1	28.97	16.59	9.3	–	2.751
298.15 K	139	107.7	73.3	49.2	–	–	12.2	7.2	4.145	2.264
308.15 K	77.3	62.8	45.4	–	21.86	14.48	–	5.71	–	1.885
318.15 K	47.4	–	–	–	–	10.91	–	4.64	2.829	–
328.15 K	31.3	26.89	21	15.99	11.82	8.49	5.84	–	2.391	1.355
338.15 K	–	19.14	15.4	12.05	9.18	6.77	4.79	3.218	–	1.165
